US12180226B2, “Spirotricycle RIPK1 inhibitors and methods of uses thereof” (Merck Sharp & Dohme LLC, priority 2021, dated 2024)
Structures can show the parent of a compound that is named as a salt.

Biological target: RIPK1 (recombinant GST-RIPK1 kinase domain, residues 1-327) (Homo sapiens (Human), UniProt Q13546)
Test: RIPK1-ADP-Glo Enzymatic Assay
Format: biochemical
Conditions: ADP-Glo; 25 nM GST-RIPK1, 300 μM ATP; assay lower limit ~25 nM; read-out: RIPK1 V0 Ec50
In short: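 Compounds titrated 10-pt 1:3 from 100000 nM top (1% DMSO); 30 min preinc w/ 25 nM Sf21-expressed enzyme, RT; start w/ ATP (300 μM final) + dephos-MBP (3 μM); 150 min; ADP-Glo lumi; 4-param fit → EC50.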

RIPK1 (recombinant GST-RIPK1 kinase domain, residues 1-327), sequence (Q13546 1-327): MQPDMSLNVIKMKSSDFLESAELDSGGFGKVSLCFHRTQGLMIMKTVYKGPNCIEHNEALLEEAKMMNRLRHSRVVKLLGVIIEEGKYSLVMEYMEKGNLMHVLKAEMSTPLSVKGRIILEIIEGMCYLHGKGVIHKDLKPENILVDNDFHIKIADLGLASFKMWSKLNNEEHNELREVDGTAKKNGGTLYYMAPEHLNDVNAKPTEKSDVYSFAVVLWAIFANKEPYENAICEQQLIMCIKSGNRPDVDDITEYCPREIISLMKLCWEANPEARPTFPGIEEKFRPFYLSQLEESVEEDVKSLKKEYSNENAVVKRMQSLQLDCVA

Row | SMILES | EC50 [nM]
1 | N#Cc1ccc(N2CCC3(CC2)O[C@@H]2CC[C@@H](c4cc(F)cc(F)c4)N2C3=O)cc1 [Example 4.68, 4-[(5′S,7a′R)-5′-(3,5-difluorophenyl)-3′-oxotetrahydro-1H,3′H-spiro[piperidine-4,2′-pyrrolo[2,1-b] [1,3]oxazol]-1-yl]benzonitrile] | < 25
2 | Cc1nc(Cl)c(C)c(N2CCC3(CC2)O[C@@H]2CC[C@@H](c4ccccc4)N2C3=O)n1 [Example 4.22, (5′S,7a′R)-1-(6-chloro-2,5-dimethylpyrimidin-4-yl)-5′-phenyltetrahydro-3′H-spiro[piperidine-4,2′-pyrrolo[2,1-b] [1,3]oxazol]-3′-one] | 26.9
3 | O=C(c1cccnc1)N1CCC2(CC1)O[C@@H]1CC[C@@H](c3cc(F)cc(F)c3)N1C2=O [Example 5.64, (5′S,7a′R)-5′-(3,5-difluoro-phenyl)-1-nicotinoyltetra-hydro-3′H-spiro[piperidine-4,2′-pyrrolo[2,1-b]oxazol]-3′-one] | 38.8
4 | N#Cc1cccc(S(=O)(=O)N2CCC3(CC2)O[C@@H]2CC[C@@H](c4cc(F)cc(F)c4)N2C3=O)c1 [Example 8.3, 3-{[(5′S,7a′R)-5′-(3,5-difluorophenyl)-3′-oxotetrahydro-1H,3′H-spiro[piperidine-4,2′-pyrrolo[2,1-b][1,3]oxazol]-1-yl]sulfonyl]benzonitrile] | 213
5 | CC1(C)Cc2cccc(C(=O)N3CCC4(CC3)O[C@@H]3CC[C@@H](c5cc(F)cc(F)c5)N3C4=O)c2O1 [Example 6.32, (5′S,7a′R)-5′-(3,5-difluorophenyl)-1-(2,2-dimethyl-2,3-dihydro-1-benzo-furan-7-carbonyl)-tetrahydro-3′H-spiro [piperidine-4,2′-pyrrolo[2,1-b][1,3]oxazol]-3′-one] | 228
6 | O=C1N2[C@H](OC13CCN(c1ccnc4ccnn14)CC3)[C@@H](O)C[C@H]2c1ccccc1 [Example 4.251, (5′S,7′S,7a′R)-7′-hydroxy-5′-phenyl-1-(pyrazolo [1,5-a]pyrimidin-7-yl)tetrahydro-3′H-spiro[piperidine-4,2′-pyrrolo[2,1-b] [1,3]oxazol]-3′-one] | < 25
7 | N#Cc1cccc(C(=O)N2CCC3(CC2)O[C@@H]2CC[C@@H](c4cccc(F)c4)N2C3=O)c1 [Example 6.115, 3-[(5′S,7a′R)-5′-(3-fluorophenyl)-3′-oxo-tetrahydro-1H,3′H-spiro[piperidine-4,2′-pyrrolo[2,1-b][1,3]-oxazole]-1-carbonyl] benzonitrile] | < 25
8 | Cc1cc(C)cc(C(=O)N2CCC3(CC2)O[C@@H]2CC[C@@H](c4cccc(F)c4)N2C3=O)c1 [Example 6.132, (5′S,7a′R)-1-(3,5-dimethylbenzene-1-carbonyl)-5′-(3-fluoro-phenyl)tetrahydro-3′H-spiro[piperidine-4,2′-pyrrolo[2,1-b][1,3]oxazol]-3′-one] | 71.7
9 | Cc1ncccc1C(=O)N1CCC2(CC1)O[C@@H]1CC[C@@H](c3cc(F)cc(F)c3)N1C2=O [Example 6.52, (5′S,7a′R)-5′-(3,5-difluorophenyl)-1-(2-methylpyridine-3-carbonyl)tetrahydro-3′H-spiro[piperidine-4,2′-pyrrolo[2,1-b] [1,3]oxazol]-3′-one] | 528
10 | CC1CN(c2cccc3ncnn23)CCC12O[C@@H]1CC[C@@H](c3ccccc3)N1C2=O (stereo partly drawn) [Example 4.243, (4R,5′S,7a′R)-3-methyl-5′-phenyl-1-([1,2,4]triazolo[1,5-a]pyridin-5-yl)tetrahydro-3′H-spiro[piperidine-4,2′-pyrrolo[2,1-b] [1,3]oxazol]-3′-one] | 26.3
11 | N#Cc1cc(N2CCC3(CC2)C[C@@H]2OC[C@@H](c4ccccc4)N2C3=O)ncn1 [Example 4.113, 6-[(3′R,7a′S)-5′-oxo-3′-phenyltetrahydro-1H,5′H-spiro[piperidine-4,6′-pyrrolo[2,1-b] [1,3]oxazol]-1-yl]pyrimidine-4-carbonitrile] | 309
12 | CC1CN(c2ccnc3ccnn23)CCC12O[C@@H]1CC[C@@H](c3ccccc3)N1C2=O (stereo partly drawn) [Example 4.235, (4R,5′S,7a′R)-3-methyl-5′-phenyl-1-(pyrazolo[1,5-a]pyrimidin-7-yl)tetrahydro-3′H-spiro[piperidine-4,2′-pyrrolo[2,1-b] [1,3]oxazol]-3′-one] | < 25
13 | O=C1N2[C@@H](CC[C@H]2c2ccccc2)OC12CCN(c1ncc(-c3ncco3)cn1)CC2 [Example 21.15, (5′S,7a′R)-1-[5-(1,3-oxazol-2-yl)pyrimidin-2-yl]-5′-phenyltetrahydro-3′H-spiro[piperidine-4,2′-pyrrolo[2,1-b][1,3]oxazol]-3′-one] | < 25
14 | COc1cc(F)cc([C@@H]2CC[C@H]3OC4(CCN(C(=O)c5ccccc5)CC4)C(=O)N32)c1 [Example 17.9, (5′S,7a′R)-1-benzoyl-5′-(3-fluoro-5-methoxyphenyl)tetrahydro-3′H-spiro[piperidine-4,2′-pyrrolo[2,1-b]oxazol]-3′-one] | 40.7
15 | O=C(c1cc(F)ccc1F)N1CCC2(O[C@@H]3CC[C@@H](c4ccccc4)N3C2=O)C(F)C1 (stereo partly drawn) [Example 6.111, (5′S,7a′R)-1-(2,5-difluorobenzene-1-carbonyl)-3-fluoro-5′-phenyltetrahydro-3′H-spiro[piperidine-4,2′-pyrrolo[2,1-b][1,3]-oxazol]-3′-one] | < 25

Continued, values first:

Row | EC50 [nM] | SMILES
16 | < 25 | O=C1N2[C@@H](CC[C@H]2c2ccccc2)OC12CCN(c1cccc3ncnn13)CC2F (single isomer, unassigned) [Example 13.18, (3[S or R], 4 [R or S], 5′S,7a′R)-1-([1,2,4]triazolo[1,5-a]pyridin-5-yl)-3-fluoro-5′-phenyltetrahydro-3′H-spiro[piperidine-4,2′-pyrrolo[2,1-b]oxazol]-3′-one, TFA salt]
17 | 37.8 | Cc1nc(N2CCC3(CC2)O[C@@H]2CC[C@@H](c4ccccc4)N2C3=O)ncc1-c1cnoc1 [Example 21.9, (5′S,7a′R)-1-[4-methyl-5-(1,2-oxazol-4-yl)pyrimidin-2-yl]-5′-phenyltetrahydro-3′H-spiro[piperidine-4,2′-pyrrolo[2,1-b][1,3]oxazol]-3′-one]
18 | < 25 | N#Cc1ccc(N2CCC3(CC2)O[C@@H]2CC[C@@H](c4cccc(F)c4)N2C3=O)n2ncnc12 [Example 4.259, 5-[(5′S,7a′R)-5′-(3-fluorophenyl)-3′-oxotetrahydro-1H,3′H-spiro[piperidine-4,2′-pyrrolo[2,1-b] [1,3]oxazol]-1-yl][1,2,4]triazolo[1,5-a] pyridine-8-carbonitrile]
19 | < 25 | O=C1N2[C@@H](CC[C@H]2c2cc(F)cc(F)c2)OC12CCN(c1ncnc3ccnn13)CC2 [Example 4.128, (5′S,7a′R)-5′-(3,5-difluorophenyl)-1-(pyrazolo[1,5-a] [1,3,5]triazin-4-yl)tetrahydro-3′H-spiro[piperidine-4,2′-pyrrolo[2,1-b] [1,3]oxazol]-3′-one]
20 | < 25 | O=C1N2[C@@H](CC[C@H]2c2ccccc2)OC12CCN(c1ncc(-c3cnco3)cc1F)CC2 [Example 21.5, (5′S,7a′R)-1-[3-fluoro-5-(1,3-oxazol-5-yl)pyridin-2-yl]-5′-phenyltetrahydro-3′H-spiro[piperidine-4,2′-pyrrolo[2,1-b][1,3]oxazol]-3′-one]
21 | < 25 | N#Cc1ccc(N2CCC3(CC2)O[C@@H]2CC[C@@H](c4cncc(F)c4)N2C3=O)n2nccc12 [Example 14.3, 7-((5′S,7a′R)-5′-(5-fluoropyridin-3-yl)-3′-oxotetrahydro-3′H-spiro[piperidine-4,2′-pyrrolo[2,1-b]oxazol]-1-yl)pyrazolo[1,5-a]pyridine-4-carbonitrile]
22 | < 25 | O=C1N2[C@@H](CC[C@H]2c2ccccc2)OC12CCN(c1ccnc3c(F)cnn13)CC2F (single isomer, unassigned) [Example 4.91, (3[R or S],4[S or R], 5′S,7a′R)-3-fluoro-1-(3-fluoropyrazolo[1,5-a]pyrimidin-7-yl)-5′-phenyltetrahydro-3′H-spiro[piperidine-4,2′-pyrrolo[2,1-b]oxazol]-3′-one, TFA salt]
23 | < 25 | NC(=O)c1ccc(N2CCC3(CC2)O[C@@H]2CC[C@@H](c4ccccc4F)N2C3=O)n2ncnc12 [Example 4.151, 5-[(5′S,7a′R)-5′-(2-fluorophenyl)-3′-oxotetrahydro-1H,3′H-spiro[piperidine-4,2′-pyrrolo[2,1-b] [1,3]oxazol]-1-yl][1,2,4]triazolo[1,5-a] pyridine-8-carboxamide]
24 | < 25 | N#Cc1cc(F)cc([C@@H]2CC[C@H]3OC4(CCN(c5ccnc6c(F)cnn56)CC4)C(=O)N32)c1 [Example 4.121, 3-fluoro-5-[(5′S,7a′R)-1-(3-fluoropyrazolo[1,5-a]pyrimidin-7-yl)-3′-oxotetrahydro-3′H-spiro[piperidine-4,2′-pyrrolo[2,1-b] [1,3]oxazol]-5′-yl]benzonitrile]
25 | 29.3 | O=C1N2[C@@H](CC[C@H]2c2cncc(F)c2)OC12CCN(c1ccnc3c(F)cnn13)CC2 [Example 4.84, (5′S,7a′R)-1-(3-fluoropyrazolo[1,5-a]pyrimidin-7-yl)-5′-(5-fluoropyridin-3-yl)tetrahydro-3′H-spiro[piperidine-4,2′-pyrrolo[2,1-b]oxazol]-3′-one, TFA salt]
26 | 48.4 | CC(C)N1Cc2nc(N3CCC4(CC3)O[C@@H]3CC[C@@H](c5ccccc5)N3C4=O)ccc2C1=O [Example 4.195, (5′S,7a′R)-1-[5-oxo-6-(propan-2-yl)-6,7-dihydro-5H-pyrrolo[3,4-b]pyridin-2-yl]-5′-phenyltetrahydro-3′H-spiro[piperidine-4,2′-pyrrolo[2,1-b] [1,3]oxazol]-3′-one]
27 | < 25 | O=C1N2[C@@H](CC[C@H]2c2ccccc2)OC12CCN(c1ccc(-c3ncco3)c3ncnn13)CC2 [Example 4.180, (5′S,7a′R)-1-[8-(1,3-oxazol-2-yl)[1,2,4]triazolo[1,5-a]pyridin-5-yl]-5′-phenyltetrahydro-3′H-spiro[piperidine-4,2′-pyrrolo[2,1-b] [1,3]oxazol]-3′-one]
